Laboratory results reported in US20240156999A1, “MULTIMERIC CHELATOR COMPOUNDS FOR USE IN TARGETED RADIOTHERAPY” (Bayer Aktiengesellschaft, priority 2021, published 2024).

Legend:
[1] = Radiochemical purity (RCP) by iTLC after radiolabeling with Ra-223; format: physicochemical; details: for labelling efficiency with radium-223: compared to monomeric macropa, at 0.1 and 0.02 mM, as low as 0.005 mM for Oct2; for RCP Ra-223: iTLC
Protocol: (§1) Aliquots of Ac-225 in 0.04 M HCl or Ra-223 in 0.05 M HCl were withdrawn into Eppendorf tubes. The radioactivity in each tube was measured by HPGe detector. Solutions of compounds in 0.1 M sodium acetate, pH 5-5.5 (with additional 0.1 M NaCl for ACC solutions) were added to the tubes. RAC was in the range of 1-5 M Bq/mL and specific activity in the range of 2-200 kBq/nmol. The labelling solutions were left for 60-90 min at room temperature.
(§2) Radiochemical purity (RCP) of the labeled compounds was determined by iTLC. iTLC strips were cut from silica impregnated chromatography paper, approx. 1 cm wide and 11 cm long. The strips were marked with a pen at 1 cm (application point), 4 cm (cut line for ACCs) or 5 cm (cut line for chelators) and 8 cm (front line). A beaker was filled up to 0.5 cm with 0.1 M citrate in 0.9% NaCl, pH 5.5. 1-10 μL of the radiolabeled compound was added to the application point and the strips immediately placed vertically in the beaker. The strips were removed when the solvent front reached the front line and then cut in two sections at the cut line. Each section was measured using a HPGe detector (ORTEC) to determine the radioactivity origin from the nuclide of interest. The RCP, in percentage, forthe nuclide of interest was calculated using the following equation: […]

[2] = Radiochemical purity (RCP) by iTLC after radiolabeling with Ac-225; format: physicochemical; details: labelling concentration 0.02 mM
Protocol: as §1, §2

[3] = cited from earlier work
[4] = Radio-HPLC analysis of Ra-223 labelled compound with peak fractioning; format: physicochemical
Protocol: Radiolabeled compounds were analyzed by radio-HPLC using either a) Vanquish HPLC system (Thermo) equipped with a diode array detector and a Flowstar LB 514 radio detector (Berthold technologies); or b) an 1290 Infinity-II HPLC system (Agilent) equipped with a diode array detector and flow-count radio detector (Eckert & Ziegler).
Labelled chelator compounds were eluted using A=40 mM TRIS/6 mM citrate/2 mM EDTA and B=ACN/MeOH (8:2); aKinetexC18 (30×2.1 mm), 1.7 μm, 100 Å, Phenomenex); gradient 5-50% B for 10 min; flow rate of 0.3 mL/min or a Discovery RP amide c16 (150×2.1mm), 5 um, 100 Å, Gradient: 5-50% B for 12.5 min; flow rate of 0.6 mL/min.
Radio-HPLC peak fractioning was performed to determine the radionuclide(s) associated to each radio peak. The collected peak fractions were analysed using an HPGe detector.

[5] = labelling concentration 0.02 mM
[6] = labelling concentration 0.005 mM
[7] = labelling concentration 0.27 mM

Row | SMILES | labelling efficiency with radium-223 [1] | RCP Ra-223 [1, 5] [%] | RCP Ac-225 [2] [%] | RCP Ra-223 [1, 6] [%] | other results
1 | O=C(COCC(=O)Nc1cc(CN2CCOCCOCCN(Cc3cccc(C(=O)O)n3)CCOCCOCC2)nc(C(=O)O)c1)NCCN(CCCN(CCNC(=O)COCC(=O)Nc1cc(CN2CCOCCOCCN(Cc3cccc(C(=O)O)n3)CCOCCOCC2)nc(C(=O)O)c1)CCNC(=O)COCC(=O)Nc1cc(CN2CCOCCOCCN(Cc3cccc(C(=O)O)n3)CCOCCOCC2)nc(C(=O)O)c1)CCNC(=O)COCC(=O)Nc1cc(CN2CCOCCOCCN(Cc3cccc(C(=O)O)n3)CCOCCOCC2)nc(C(=O)O)c1 [Tet2, 4,4′-[(9,13-bis{2-[2-(2-{[2-carboxy-6-({16-[(6-carboxypyridin-2-yl)methyl]-1,4,10,13-tetraoxa-7,16-diazacyclooctadecan-7-yl}methyl)pyridin-4-yl]amino}-2-oxoethoxy)acetamido]ethyl}-1,5,17,21-tetraoxo-3,19-dioxa-6,9,13,16-tetraazahenicosane-1,21-diyl)diimino]bis[6-({16-[(6-carboxypyridin-2-yl)methyl]-1,4,10,13-tetraoxa-7,16-diazacyclooctadecan-7-yl}methyl)pyridine-2-carboxylic acid]] | high labelling efficiency | 74 |  |  | 
2 | O=C(O)c1cccc(CN2CCOCCOCCN(Cc3cccc(C(=O)O)n3)CCOCCOCC2)n1 [Macropa, 6,6′-[1,4,10,13-tetraoxa-7,16-diazacyclooctadecane-7,16-diylbis(methylene)]dipyridine-2-carboxylic acid, reference compound] |  |  | 100 | 8 | selectivity for large over small alkaline earth metals [3]: excellent selectivity; affinity for Ba2+ ([3]; pH 7.4): highest affinity; complexation of radium-223 ([1]; at 0.1, 0.02 and 0.005 mM concentrations): no complexation of radium-223 was observed; RCP Ra-223 [1, 7]: 12%
3 | Nc1cc(CN2CCOCCOCCN(Cc3cccc(C(=O)O)n3)CCOCCOCC2)nc(C(=O)O)c1 [Macropa-NH2, reference compound] |  |  | 99 |  | RCP Ra-223 ([1]; labelling concentration 0.1 mM): 2%; RCP Ra-223 [1, 7]: 12%
4 | COC(=O)c1cccc(CN2CCOCCOCCN(Cc3cc(NC(=O)COCC(=O)NCCN(CCN)CCCN(CCN)CCNC(=O)COCC(=O)Nc4cc(CN5CCOCCOCCN(Cc6cccc(C(=O)OC)n6)CCOCCOCC5)nc(C(=O)OC)c4)cc(C(=O)OC)n3)CCOCCOCC2)n1 [Dim1, Dimethyl 4,4′-{[9,13-bis(2-aminoethyl)-1,5,17,21-tetraoxo-3,19-dioxa-6,9,13,16-tetraazahenicosane-1,21-diyl]diimino}bis{6-[(16-{[6-(methoxycarbonyl)pyridin-2-yl]methyl}-1,4,10,13-tetraoxa-7,16-diazacyclooctadecan-7-yl)methyl]pyridine-2-carboxylate}] | high labelling efficiency | 80 | 100 |  | 
5 | O=C(CCc1cc(CN2CCOCCOCCN(Cc3cccc(C(=O)O)n3)CCOCCOCC2)nc(C(=O)O)c1)NCCCC[C@H](NC(=O)CCc1cc(CN2CCOCCOCCN(Cc3cccc(C(=O)O)n3)CCOCCOCC2)nc(C(=O)O)c1)C(=O)NCCN(CCCN(CCNC(=O)[C@H](CCCCNC(=O)CCc1cc(CN2CCOCCOCCN(Cc3cccc(C(=O)O)n3)CCOCCOCC2)nc(C(=O)O)c1)NC(=O)CCc1cc(CN2CCOCCOCCN(Cc3cccc(C(=O)O)n3)CCOCCOCC2)nc(C(=O)O)c1)CCNC(=O)[C@H](CCCCNC(=O)CCc1cc(CN2CCOCCOCCN(Cc3cccc(C(=O)O)n3)CCOCCOCC2)nc(C(=O)O)c1)NC(=O)CCc1cc(CN2CCOCCOCCN(Cc3cccc(C(=O)O)n3)CCOCCOCC2)nc(C(=O)O)c1)CCNC(=O)[C@H](CCCCNC(=O)CCc1cc(CN2CCOCCOCCN(Cc3cccc(C(=O)O)n3)CCOCCOCC2)nc(C(=O)O)c1)NC(=O)CCc1cc(CN2CCOCCOCCN(Cc3cccc(C(=O)O)n3)CCOCCOCC2)nc(C(=O)O)c1 [Oct2] | high labelling efficiency |  |  | 64 | 

Further lines, with some results ahead:

Row | labelling efficiency with radium-223 [1] | RCP Ra-223 [1, 5] [%] | RCP Ac-225 [2] [%] | RCP Ra-223 [1, 6] [%] | SMILES | other results
6 |  |  | 100 |  | O=C(O)c1cccc(CN2CCOCCOCCN(Cc3cccc(C(=O)NCCCC[C@@H](NC(=O)c4cccc(CN5CCOCCOCCN(Cc6cccc(C(=O)O)n6)CCOCCOCC5)n4)C(=O)O)n3)CCOCCOCC2)n1 [Dim3, 6-[[16-[[6-[[(5R)-5-carboxy-5-[[6-[[16-[(6-carboxy-2-pyridyl)methyl]-1,4,10,13-tetraoxa-7,16-diazacyclooctadec-7-yl]methyl]pyridine-2-carbonyl]amino]pentyl]carbamoyl]-2-pyridyl]methyl]-1,4,10,13-tetraoxa-7,16-diazacyclooctadec-7-yl]methyl]pyridine-2-carboxylic acid] | RCP Ra-223 ([1]; labelling concentration 0.2 mM): 32%
7 | high labelling efficiency | 89 |  |  | COC(=O)c1cccc(CN2CCOCCOCCN(Cc3cc(NC(=O)COCC(=O)NCCN(CCN)CCCN(CCNC(=O)COCC(=O)Nc4cc(CN5CCOCCOCCN(Cc6cccc(C(=O)OC)n6)CCOCCOCC5)nc(C(=O)OC)c4)CCNC(=O)COCC(=O)Nc4cc(CN5CCOCCOCCN(Cc6cccc(C(=O)OC)n6)CCOCCOCC5)nc(C(=O)OC)c4)cc(C(=O)OC)n3)CCOCCOCC2)n1 [Tri1] | 
8 | high labelling efficiency | 95 | 99 |  | COC(=O)c1cccc(CN2CCOCCOCCN(Cc3cc(NC(=O)COCC(=O)NCCN(CCCN(CCNC(=O)COCC(=O)Nc4cc(CN5CCOCCOCCN(Cc6cccc(C(=O)OC)n6)CCOCCOCC5)nc(C(=O)OC)c4)CCNC(=O)COCC(=O)Nc4cc(CN5CCOCCOCCN(Cc6cccc(C(=O)OC)n6)CCOCCOCC5)nc(C(=O)OC)c4)CCNC(=O)COCC(=O)Nc4cc(CN5CCOCCOCCN(Cc6cccc(C(=O)OC)n6)CCOCCOCC5)nc(C(=O)OC)c4)cc(C(=O)OC)n3)CCOCCOCC2)n1 [Tet1] | labeling of solution with Ra-223 ([4]; 0.02 mM solution): efficient labeling; wash through of free radioactivity in the void volume ([4]; radio HPLC, Ra-223 labelled): almost no wash through of free radioactivity
9 |  |  | 100 |  | O=C(O)c1cccc(CN2CCOCCOCCN(Cc3cccc(CN4CCOCCOCCN(Cc5cccc(C(=O)O)n5)CCOCCOCC4)n3)CCOCCOCC2)n1 [Dim2, 6,6′-[pyridine-2,6-diylbis(methylene-1,4,10,13-tetraoxa-7,16-diazacyclooctadecane-16,7-diylmethylene)]dipyridine-2-carboxylic acid] | RCP Ra-223 ([1]; labelling concentration 0.2 mM): 11%
10 | high labelling efficiency | 95 |  | 36 | O=C(CCc1cc(CN2CCOCCOCCN(Cc3cccc(C(=O)O)n3)CCOCCOCC2)nc(C(=O)O)c1)NCCN(CCCN(CCNC(=O)CCc1cc(CN2CCOCCOCCN(Cc3cccc(C(=O)O)n3)CCOCCOCC2)nc(C(=O)O)c1)CCNC(=O)CCc1cc(CN2CCOCCOCCN(Cc3cccc(C(=O)O)n3)CCOCCOCC2)nc(C(=O)O)c1)CCNC(=O)CCc1cc(CN2CCOCCOCCN(Cc3cccc(C(=O)O)n3)CCOCCOCC2)nc(C(=O)O)c1 [Tet5, 4,4′-[7,11-bis(2-{3-[2-carboxy-6-({16-[(6-carboxypyridin-2-yl)methyl]-1,4,10,13-tetraoxa-7,16-diazacyclooctadecan-7-yl}methyl)pyridin-4-yl]propanamido}ethyl)-3,15-dioxo-4,7,11,14-tetraazaheptadecane-1,17-diyl]bis[6-({16-[(6-carboxypyridin-2-yl)methyl]-1,4,10,13-tetraoxa-7,16-diazacyclooctadecan-7-yl}methyl)pyridine-2-carboxylic acid]] | 
